The text below walks through data of patent US20240197694A1, “MODIFIED PROTEINS AND PROTEIN BINDERS” (Cullgen (Shanghai), Inc., priority 2021, published 2024).

A value given as a limit tells only on which side of the number the result lay.

In the assay the target is T1, DCAF1 (1058-1396) (Homo sapiens, UniProt Q9Y4B6).
T1 construct: a fragment of a DCAF1 protein that includes amino acid residues A1058 to E1396; His6 (N, cleaved yes); made in house; host or cells: Sf9 insect cells (Bac-to-Bac baculovirus, pFastBacHT vector)
T1 sequence (Q9Y4B6 1058-1396): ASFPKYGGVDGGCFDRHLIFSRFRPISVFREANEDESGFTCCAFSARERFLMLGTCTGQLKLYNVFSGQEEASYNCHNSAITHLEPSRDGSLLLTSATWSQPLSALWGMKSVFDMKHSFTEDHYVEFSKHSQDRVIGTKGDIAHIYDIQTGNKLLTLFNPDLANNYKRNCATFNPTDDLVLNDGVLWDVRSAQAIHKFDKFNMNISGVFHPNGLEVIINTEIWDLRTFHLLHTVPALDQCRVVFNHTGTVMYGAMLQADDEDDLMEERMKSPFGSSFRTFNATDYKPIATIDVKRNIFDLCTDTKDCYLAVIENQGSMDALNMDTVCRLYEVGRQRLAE
The experiment in a line: Surface plasmon resonance (SPR) binding assay, compound binding to DCAF1. The settings on record: immobilized DCAF1 (1058-1396), steady state affinity model, 25° C. The essentials:
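Amine-coupled DCAF1 (1058-1396), Sf9-expressed, tag removed, at 9,000-12,000 RU; HBS-EP pH 7.4 with 2% DMSO, 25° C. Compounds at 100-3.125 μM (6-point, two-fold) injected multi-cycle, 60 s association/dissociation, 30 μL/min; double-referenced, solvent-corrected, Kd from steady-state affinity fit.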
A general note: In SPR one partner is held on a chip, and binding of the other changes the refractive index at the surface.
In general, Kd refers to the free concentration of one partner at which half of the binding sites on the other are occupied at equilibrium, for simple one-to-one binding. The low end stands for a tighter complex, the high end for a looser complex. On to `Cc1ccc2c(c1)C1CN(C)CCC1N2C(=O)/C=C/c1ccccc1` (stereo not shown) [CPD-083, (E)-1-(2,8-dimethyl-1,2,3,4,4a,9b-hexahydro-5H-pyrido [4,3-b]indol-5-yl)-3-phenylprop-2-en-1-one], for which the dissociation constant Kd is more than 100 µM. For `NCCCCCCn1c2c(c3cc(F)ccc31)CN(CCc1cnn[nH]1)CC2` [CPD-014, 6-(2-(2-(1H-1,2,3-triazol-5-yl)ethyl)-8-fluoro-1,2,3,4-tetrahydro-5H-pyrido[4,3-b]indol-5-yl)hexan-1-amine] the value was 40 to 70 µM. For `NCCCCCCn1cccc1CNCc1ccncc1` [CPD-005, 6-(2-(((pyridin-4-ylmethyl)amino)methyl)-1H-pyrrol-1-yl)hexan-1-amine] the value was 40 to 70 µM; for `COc1cc(CNCc2cnc[nH]2)ccn1` [CPD-025, N-((1H-imidazol-5-yl)methyl)-1-(2-methoxypyridin-4-yl) methanamine], more than 100 µM; for `CN(C)C(=O)c1ccc(NCC2Cc3ccccc3CN2C)nc1` (stereo not shown) [CPD-089, N,N-dimethyl-6-(((2-methyl-1,2,3,4-tetrahydroisoquinolin-3-yl)methyl)amino)nicotinamide], 70 to 100 µM.

`OCC1(CNCc2cnc[nH]2)CC1` [CPD-105, (1-((((1H-imidazol-5-yl)methyl)amino)methyl)cyclopropyl) methanol] came in with a Kd not above 40 µM. Compound `Cc1ccc2c(c1)c1c(n2C)CC[N+](C)(C)C1` [CPD-020, 2,2,5,8-tetramethyl-2,3,4,5-tetrahydro-1H-2λ^4-pyrido[4,3-b]indol-3-ylium] displayed a dissociation constant Kd of more than 100 µM.

The compound `Cc1ccc2c(c1)C1CN(C)CCC1N2C(=O)c1cc(F)ccc1Br` (stereo not shown) [CPD-065, (2-bromo-5-fluorophenyl) (2,8-dimethyl-1,2,3,4,4a,9b-hexahydro-5H-pyrido[4,3-b]indol-5-yl)methanone] returned a Kd not above 40 µM.

For the compound `Cc1ccc2c(c1)c1c(n2C)CCN(C)C1` [CPD-022, 2,5,8-trimethyl-2,3,4,5-tetrahydro-1H-pyrido[4,3-b]indole], the Kd is more than 100 µM.

Consider `O=c1cc(CNCc2cnc[nH]2)cc[nH]1` [CPD-026, 4-((((1H-imidazol-5-yl)methyl)amino)methyl)pyridin-2(1H)-one], for which the Kd is more than 100 µM.
